Data reported in US10227358B2, “Hydroxyester derivatives, a process for their preparation and pharmaceutical compositions containing them” (LES LABORATOIRES SERVIER, priority 2015, dated 2019).

Experiments:
[1] = tested on: H929 multiple myeloma tumour line; experiment: In vitro cytotoxicity (MTT, Microculture Tetrazolium Assay); assay type: cell-based; settings: Homo sapiens, NCI-H929; H929 cells, 48 hours exposure, cell viability
Procedure: The cytotoxicity studies were carried out on the H929 multiple myeloma tumour line.
The cells are distributed onto microplates and exposed to the test compounds for 48 hours.
The cell viability is then quantified by a colorimetric assay, the Microculture Tetrazolium Assay (Cancer Res., 1987, 47, 939-942).

Mcl-1 protein = Mcl-1 protein (UniProtKB Q07820) (Homo sapiens, UniProt Q07820); experiment: Inhibition of Mcl-1 by the fluorescence polarisation technique; assay type: binding; settings: fluorescein labelled ligand 1 nM, Mcl-1 protein 5 nM, ~2 hours at room temperature; read-out: IC50 (μM) Mcl-1 FP
Procedure: The relative binding potency of each compound was determined via Fluorescence Polarisation (FP). The method utilised a Fluorescein labelled ligand (Fluorescein-βAla-Ahx-A-REIGAQLRRMADDLNAQY-OH; mw 2,765) which binds to the Mcl-1 protein (such that Mcl-1 corresponds to the UniProtKB® primary accession number: Q07820) leading to an increased anisotropy measured in milli-polarisation (mP) units using a reader. The addition of a compound which binds competitively to the same site as the ligand will result in a greater proportion of unbound ligand in the system indicated by a decrease in mP units.
An 11 point serial dilution of each compound was prepared in DMSO and 2 μl transferred into flat bottomed, low binding, 384-well plate (final DMSO concentration 5%). 38 μl of buffer (10 mM 4-(2-hydroxyethyl)-1-piperazineethanesulfonic acid [HEPES], 150 mM NaCl, 0.05% Tween 20, pH 7.4), containing the Fluorescein labelled ligand (final concentration 1 nM) and Mcl-1 protein (final concentration 5 nM) was then added.
Assay plates were incubated ˜2 hours at room temperature before FP was measured on a […] Synergy2 reader (Ex. 528 nm, Em. 640 nm, Cut off 510 nm) and mP units calculated. The binding of increasing doses of test compound was expressed as a percentage reduction in mP compared to a window established between ‘5% DMSO only’ and ‘100% inhibition’ controls. 11-point dose response curves were plotted with XL-Fit software using a 4-Parameter Logistic Model (Sigmoidal Dose-Response Model) and the inhibitory concentrations that gave a 50% reduction in mP (IC50) were determined.

Chain of Mcl-1 protein (Q07820 whole entry): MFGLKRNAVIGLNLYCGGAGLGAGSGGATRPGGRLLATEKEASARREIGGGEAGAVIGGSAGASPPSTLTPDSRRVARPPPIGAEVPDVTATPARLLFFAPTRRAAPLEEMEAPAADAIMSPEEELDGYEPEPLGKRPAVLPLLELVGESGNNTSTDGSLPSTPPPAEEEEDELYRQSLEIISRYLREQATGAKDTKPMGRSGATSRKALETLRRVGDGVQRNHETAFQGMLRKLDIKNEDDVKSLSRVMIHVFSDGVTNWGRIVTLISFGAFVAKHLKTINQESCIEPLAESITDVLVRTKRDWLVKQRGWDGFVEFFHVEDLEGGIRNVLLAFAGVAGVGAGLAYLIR

COc1ccccc1-c1nccc(COc2ccccc2C[C@@H](Oc2ncnc3sc(-c4ccc(F)cc4)c(-c4c(C)c(Cl)c(OCCN5CCN(C)CC5)c(Cl)c4C)c23)C(=O)O)n1 [Preparation 13, (2R)-2-{[5-{3,5-dichloro-2,6-dimethyl-4-[2-(4-methylpiperazin-1-yl)ethoxy]phenyl}-6-(4-fluorophenyl)thieno[2,3-d]pyrimidin-4-yl]oxy}-3-(2-{[2-(2-methoxyphenyl)pyrimidin-4-yl]methoxy}phenyl)propanoic Acid]
IC50 [1]: 0.025 µM
IC50 (Mcl-1 protein): 0.00181 µM
